Patent publication US20230405130A1, “COMPOSITIONS AND METHODS FOR MODIFYING BACTERIAL GENE EXPRESSION” (priority 2020, published 2023)

Key:
dnaE = dnaE expression after anti-dnaE oligonucleotide treatment (immunoblotting); type: cell-based, C. difficile; details: FIG. 2
Protocol: Studies were performed to identify C. difficile gene targets with the least pathway redundancy, while ensuring ASO specificity (oligonucleotides ≥25 bp in length). […] Five candidate C. difficile gene targets were identified, and dnaE (which encodes the alpha subunit of DNA polymerase III, and is invariant in C. difficile strains) harbored the most favorable translation inhibition potential (confirmed via immunoblotting; FIG. 2). Thus, it was used in further experiments. Specifically, the ASO formulation is a 2′-O-methyl phosphorothioate (PTO) gapmer, which has a good safety record (Shen et al., Antisense Nucleic Acid Drug Dev. 2001 August; 11(4):257-64; Chen et al., Transplantation. 2005 Feb. 27; 79(4):401-8; Nomura et al., Int J Pharm. 2018 Aug. 25; 547(1-2):556-562.).

[1] = test system: cultured human intestinal epithelial cells; assay: Toxicity to cultured human intestinal epithelial cells; type: cell-based; details: at the doses used for C. difficile inhibition
E. faecalis = assay: In vitro growth of commensal bacteria: E. faecalis; type: cell-based; details: only at >17× the dosing range to treat C. difficile
Protocol: (§1) Nanocomplex CAB-964 was complexed to the anti-dnaE ASO (SEQ ID NO:1) as previously described (Hegarty et al., Int J Nanomedicine. 2016 Aug. 1; 11:3607-19; Sharma et al., J Antibiot (Tokyo). 2018 August; 71(8):713-721; herein incorporated by reference in its entirety) and the resulting nanocomplex is called SRPNT. Multiple in vitro tests were performed with SRPNT as well as its parent empty CAB, with CAB CYDE-21 and its derived nanocomplex as comparators. For the pathogen (Hegarty 2016, supra; Sharma 2018, supra) a whole genome-sequenced Ribotype 027 C. difficile strain associated with severe, complicated CDI in human subjects was used.

B. fragilis = assay: In vitro growth of commensal bacteria: B. fragilis; type: cell-based; details: only at >17× the dosing range to treat C. difficile
Protocol: as §1

Water solubility = type: physicochemical; details: room temperature
[2] = test system: Ribotype 027 C. difficile strain; assay: In vitro anti-C. difficile activity / MIC; type: cell-based; details: FIG. 3 legend
Protocol: as §1

E. coli = assay: In vitro growth of commensal bacteria: E. coli; type: cell-based; details: only at >17× the dosing range to treat C. difficile
Protocol: as §1

5′-G*T*T*C*A*T*TAAA TCACC TCC T*G*C*T*T*T*A3′ (GTTCATTAAATCACCTCCTGCTTT; listed as DNA, chemistry not fully specified) [anti-dnaE oligonucleotide, 2′-O-methyl phosphorothioate (PTO) gapmer ASO targeting dnaE]
dnaE expression (dnaE): decreases dnaE expression

c1cc2c([n+](CCCCCCCCCC[n+]3cccc4c3CCCC4)c1)CCCC2 [CAB-964]
toxicity to cultured human intestinal epithelial cells [1]: non-toxic
growth reduction of E. faecalis (E. faecalis): 7%
growth reduction of B. fragilis (B. fragilis): 7%
solubility (Water solubility): 26 mg/mL
anti-C. difficile activity [2]: no anti-C. difficile activity
growth reduction of E. coli (E. coli): 7%
